Experimental data reported in patent EP4786454A1, “HETEROARYL DERIVATIVE AND USE THEREOF” (priority 2023, dated 2025).

Key:
hKCNQ2/3 = target: T1, hKCNQ2/3 (Homo sapiens, UniProt O43525+O43526); assay: hKCNQ2/3 thallium flux assay (FLIPR); type: cell-based; conditions: agonistic effect, CHO cell line stably expressing hKCNQ2/3
T1 construct: expressed in transfected cells; host or cells: CHO
Description: The present disclosure also provides the following assay methods: • Assay method 1: hKCNQ2/3 thallium flux assay • Purpose of the assay: To determine the in vitro concentration-response relationship of the compounds in a CHO cell line stably expressing hKCNQ2/3 using FLIPR thallium flux assay.
CHO cells stably transfected with hKCNQ2/3.
The cell line was passaged three times a week at a split ratio of 1:2 to 1:3. When the cells grew to a confluence degree of greater than 80% in a T-75 cell flask, they were digested with 0.25% trypsin-EDTA solution for about 1 minute, and then the cells were transferred from the cell flask for passage. According to the split ratio, the cells were transferred to another T-75 cell flask containing complete cell growth culture medium. Note: In order to maintain the logarithmic growth of cells, the cell growth should be maintained in a subconfluent monolayer state. The cells were passaged every 2 to 3 days according to the cell doubling time.
• (1) Day 1, cell preparation: The cells were digested according to the above method, and the cell density and viability were determined using Cell Countess. The volume of the single-cell suspension was adjusted with complete cell growth culture medium. Then, the hKCNQ2/3_CHO cells were seeded at a density of approximately 20,000 cells/well (30 µL/well) into a PDL-precoated 384-well plate. Then, the plate was incubated at 37 °C with 5% CO2 humidified air in an incubator overnight. • (2) Day 2, compound preparation: A test compound was diluted to a storage concentration with dimethyl sulfoxide (DMSO), and stored in a freezer at -20 °C. A compound addition program was set up on the ECHO liquid workstation, and the compound was added to the plate using the ECHO liquid workstation. A positive control was prepared using Retigabine (RTG) with a maximum concentration of 100 µM, which was subjected to a 3-fold dilution, resulting in a total of 9 doses constituting the plate map required for plating. Prepare the plate using a stimulation buffer containing 5 mM K^+ and 1 mM Tl^+. Note: 1) K2SO4 and Tl2SO4 were prepared in a 1× chloride-free buffer. When different voltage-gated potassium channels were involved, the concentrations of Tl^+ and K^+ were needed to be adjusted. The concentration of Tl^+ was approximately 0.5 mM to 5 mM, and the concentration of K^+ was approximately 5 mM to 30 mM. 2) Each 1 mM solution of K2SO4 and Tl2SO4 contained 2 mM K^+ and Tl^+. The final concentration should be calculated based on the ion concentrations. 3) TlCl was easily precipitated and a chloride-free buffer was required. • (3) Day 2, assay testing: When the cells reached the confluence degree, the cell analysis plate was taken out from the incubator. The assay buffer was prepared and the Tl^+ dye (Molecular Devices # R8222) was diluted. The culture medium was discarded using the liquid workstation Bravo and 25 µL of Tl^+ dye was added to each well. The plate was incubated for 1 hour, and then the cell analysis plate, composite plate, and FLIPR tip were placed in FLIPR^TETRA (Molecular Devices, USA) for FLIPR assay. The tip was set up, and then the baseline was read for 60 seconds. Then, 12.5 µL from the composite plate (3×) was added to the cell analysis plate, and the data were recorded for at least 5 minutes at the same time. • (4) Data processing: The maximum signal was generated with FLIPR software. Excel (2013) and Prism 6.01 were used for data analysis. The data quality control was performed with S/B > 2.00 and Z-factor > 0.50. IC50 or EC50 was defined as the midline between the lowest and the highest plateaus, and it was calculated using a four-parameter logistic model with Prism 6.01.
Purpose of the assay: To determine the in vitro concentration-response relationship of the compounds in a CHO cell line stably expressing hKCNQ2/3 using FLIPR thallium flux assay. […]

male CD-1 mice = assay: Maximal electroshock-induced epilepsy model, behavioral pharmacodynamics; type: in vivo; conditions: 5 mg/kg orally, one hour before electrical stimulation
Description: This study used behavioral tests in male CD-1 mice to investigate the effects of test compounds on acute epileptic seizures behavior induced by maximal electroshock.
Male CD-1 mice (25 to 35g) were used as the experimental animals and fed with standard feed (Beijing Vital River Laboratory Animal Technology Co., Ltd.).
After arriving at the animal facility, the experimental animals needed to acclimatize for at least one week. The mice were observed daily for vital signs, and randomly divided into groups according to their body weights one day before the drug administration. One hour before the electrical stimulation, different dosages of the test compound were orally administered to each group. On the day of the assay, the male CD-1 mice in each group were anesthetized locally at the cornea with 2% lidocaine. Then, silver bipolar electrodes were used to electrically stimulate the cornea of the mice with 18 mA, 60 Hz, a pulse width of 0.6 ms, and a stimulation time of 1 s to induce seizures. Subsequently, the latency of seizures and the duration of limb rigidity in mice after the electrical stimulation were observed, and the protection rate from seizures for each group was statistically analyzed.

[1] = Plasma protein binding rate, equilibrium dialysis (human plasma); type: in vitro ADME; conditions: dialysis 4 hours at 37 °C, read-out: Unbound PPB%
Protocol: (§1) The protein binding rates of the compounds in the plasma of CD-1 mice, Sprague-Dawley rats, beagle dogs, cynomolgus monkeys, and human were determined using equilibrium dialysis method.
(§2) Commercially available plasma, dual-layer dialysis membrane, and equilibrium dialysis device.
(§3) The dual-layer dialysis membrane was soaked in ultrapure water for about 1 hour, removed and then divided into two parts. It was then soaked in an ethanol:water (20:80, v:v) solution for 20 minutes or placed at 2 to 8 °C, and it was valid for 1 month. Before starting the assay, the dialysis membrane was rinsed twice with ultrapure water and then soaked in ultrapure water for another 20 minutes for later use.
(§4) On the day of assay, the frozen plasma of CD-1 mice, Sprague-Dawley rats, beagle dogs, cynomolgus monkeys, and human was thawed in running cold tap water. After the plasma was completely thawed, the plasma was centrifuged at 3220×g for 5 minutes, and the suspended substances and precipitates in it were removed. The pH of the plasma was determined. The plasma with a pH in the range of 7.4 ± 0.1 was directly used, or the plasma with a pH in the range of 7.4 ± 0.1 after an adjustment with 1% phosphoric acid or 1M sodium hydroxide was used.
(§5) Preparation process of plasma samples: 597 µL of blank plasma from each of the above five species was taken, respectively. 3 µL of a compound or warfarin working solution was added, and the mixture was mixed thoroughly to give a plasma sample with a compound concentration of 2 µM and a warfarin concentration of 2 µM (n=1). The concentration of the organic phase DMSO was 0.5%. The sample was thoroughly mixed before proceeding to the next step.
(§6) Preparation process of T0 samples: 50 µL of a plasma sample containing the compound and warfarin was transferred to a sample receiving plate (n=3), and 50 µL of blank PBS was immediately added. Then, 500 µL of stop solution was added to the T0 sample of the compound and warfarin, and the mixture was stored at 2 to 8 °C, waiting to be processed later together with other dialysis-processed samples.
(§7) Dialysis process of plasma samples: 100 µL of a compound (2 µM) and warfarin (2 µM) plasma sample was added to the donor of each dialysis well (n=3), and 100 µL of blank PBS was added to the corresponding receiver of the dialysis well. The dialysis plate was placed in a 5% CO2 incubator, and incubated at 37 °C with shaking at approximately 100 rpm for 4 hours.
(§8) After the dialysis was completed, 50 µL of dialysis-processed PBS sample and dialysis-processed plasma sample (n=3) were transferred to a new 96-well plate (sample receiving plate). The corresponding volume of the corresponding blank plasma or PBS was added to the sample to make the final volume of each sample well 100 µL, with a plasma to PBS volume ratio of 1:1. All the samples were analyzed by LC-MS/MS after protein precipitation.
(§9) The formulas for calculating the unbound fraction (%Unbound), bound fraction (%Bound) and recovery fraction (%Recovery) of a compound are as follows: %Unbound = 100 ×F / T %Bound = 100 - %Unbound %Recovery = 100 ×(F + T)/ T0 wherein F is the concentration of the compound at the receiver of dialysis; T is the concentration of the compound at the supply end of dialysis; and T0 is the concentration of the compound in the plasma at time zero.

[2] = Plasma protein binding rate, equilibrium dialysis (rat plasma); type: in vitro ADME, Sprague-Dawley rats; conditions: r (Sprague-Dawley rat plasma), dialysis 4 hours at 37 °C, read-out: Unbound PPB%
Protocol: as §1, §2, §3, §4, §5, §6, §7, §8, §9

[3] = Plasma protein binding rate, equilibrium dialysis (mouse plasma); type: in vitro ADME, CD-1 mice; conditions: m (CD-1 mouse plasma), dialysis 4 hours at 37 °C, read-out: Unbound PPB%
Protocol: as §1, §2, §3, §4, §5, §6, §7, §8, §9

[4] = Plasma protein binding rate, equilibrium dialysis (dog plasma); type: in vitro ADME, beagle dogs; conditions: d (beagle dog plasma), dialysis 4 hours at 37 °C, read-out: Unbound PPB%
Protocol: as §1, §2, §3, §4, §5, §6, §7, §8, §9

[5] = Plasma protein binding rate, equilibrium dialysis (monkey plasma); type: in vitro ADME, cynomolgus monkeys; conditions: c (cynomolgus monkey plasma), dialysis 4 hours at 37 °C, read-out: Unbound PPB%
Protocol: as §1, §2, §3, §4, §5, §6, §7, §8, §9

T1 sequence (O43525 whole entry): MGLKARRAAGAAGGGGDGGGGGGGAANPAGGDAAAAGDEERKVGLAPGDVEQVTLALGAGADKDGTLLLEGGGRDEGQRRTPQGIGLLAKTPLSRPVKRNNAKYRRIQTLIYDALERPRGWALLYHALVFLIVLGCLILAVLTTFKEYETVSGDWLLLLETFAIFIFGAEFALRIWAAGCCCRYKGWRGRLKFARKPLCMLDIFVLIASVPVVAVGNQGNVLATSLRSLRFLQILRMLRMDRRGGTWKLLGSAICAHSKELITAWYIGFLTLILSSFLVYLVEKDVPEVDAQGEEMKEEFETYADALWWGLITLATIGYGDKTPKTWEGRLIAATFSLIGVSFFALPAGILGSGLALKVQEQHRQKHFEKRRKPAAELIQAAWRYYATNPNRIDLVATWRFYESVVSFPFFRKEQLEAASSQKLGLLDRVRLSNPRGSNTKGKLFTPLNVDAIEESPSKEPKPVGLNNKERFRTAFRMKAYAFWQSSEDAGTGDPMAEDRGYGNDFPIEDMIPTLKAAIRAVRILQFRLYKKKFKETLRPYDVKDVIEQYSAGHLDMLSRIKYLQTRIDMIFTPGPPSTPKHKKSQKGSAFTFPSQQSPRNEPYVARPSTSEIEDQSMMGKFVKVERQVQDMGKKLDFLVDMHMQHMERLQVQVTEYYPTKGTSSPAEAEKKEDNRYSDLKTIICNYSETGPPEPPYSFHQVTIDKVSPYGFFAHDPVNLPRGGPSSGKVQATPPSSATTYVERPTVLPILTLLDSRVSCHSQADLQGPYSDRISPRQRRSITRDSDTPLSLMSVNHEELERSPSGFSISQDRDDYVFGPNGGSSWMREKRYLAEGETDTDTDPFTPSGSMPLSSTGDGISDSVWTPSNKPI
T1 sequence (O43526 whole entry): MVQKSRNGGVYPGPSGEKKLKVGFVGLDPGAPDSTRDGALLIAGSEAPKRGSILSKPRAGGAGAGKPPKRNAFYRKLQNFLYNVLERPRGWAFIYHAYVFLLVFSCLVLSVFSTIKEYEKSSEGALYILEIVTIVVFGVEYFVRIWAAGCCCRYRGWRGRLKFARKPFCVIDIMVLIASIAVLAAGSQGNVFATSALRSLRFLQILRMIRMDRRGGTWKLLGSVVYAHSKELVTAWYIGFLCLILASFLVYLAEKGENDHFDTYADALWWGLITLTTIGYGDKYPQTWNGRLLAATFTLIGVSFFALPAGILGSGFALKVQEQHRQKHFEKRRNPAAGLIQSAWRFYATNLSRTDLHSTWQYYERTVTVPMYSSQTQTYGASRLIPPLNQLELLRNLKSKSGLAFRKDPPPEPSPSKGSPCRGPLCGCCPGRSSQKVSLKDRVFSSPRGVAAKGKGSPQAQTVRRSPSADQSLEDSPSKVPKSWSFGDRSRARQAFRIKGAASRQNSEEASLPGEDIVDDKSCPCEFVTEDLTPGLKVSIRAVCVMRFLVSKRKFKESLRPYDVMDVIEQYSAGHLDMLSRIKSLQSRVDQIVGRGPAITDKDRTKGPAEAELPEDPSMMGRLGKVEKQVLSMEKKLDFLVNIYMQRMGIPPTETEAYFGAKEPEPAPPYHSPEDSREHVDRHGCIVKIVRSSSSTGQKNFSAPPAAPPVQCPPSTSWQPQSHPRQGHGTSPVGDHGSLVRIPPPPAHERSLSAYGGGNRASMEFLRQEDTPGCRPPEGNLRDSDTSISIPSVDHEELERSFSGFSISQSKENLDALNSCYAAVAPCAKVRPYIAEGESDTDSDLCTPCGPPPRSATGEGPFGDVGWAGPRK

Row | SMILES | EC50 (hKCNQ2/3) [nM] | Protection rate from seizures (male CD-1 mice) [%] | fraction unbound at 4 h, 2 µM [1] | fraction unbound at 4 h, 2 µM [2] | fraction unbound at 4 h, 2 µM [3] | fraction unbound at 4 h, 2 µM [4] | fraction unbound at 4 h, 2 µM [5]
1 | CC(C)(C)CC(=O)Nc1nc2cc3c(cc2n1C1(C)CCC1)CCC3 [Compound 9] | 160 | 50 | 0.003 | 0.002 | 0.002 | 0.004 | 0.004
2 | CC(C)(C)CC(=O)Nc1nc2c(F)c3c(cc2n1C1CCC1)CCC3 [Compound 8] | 420 | 50 |  |  |  |  | 
3 | CC(C)(C)CC(=O)Nc1nc2cc3c(cc2n1C1CCC1)CCC3 [Compound 7] | 420 | 66.67 | 0.004 | 0.003 | 0.003 | 0.006 | 0.012
4 | CC(C)(C)CC(=O)Nc1nc2cc3c(cc2n1C(C)(C)C)CCC3 [Compound 10] | 120 | 33.33 |  |  |  |  | 
